Earlier results as cited in patent publication US20210401736A1, “SEMI-SOLID CHEWABLE GEL CANNABINOID COMPOSITIONS AND METHODS OF MAKING AND USING THEREOF” (Seattle Gummy Company, priority 2019, published 2021).

Tests used:
[1] = 5 mg of CBN versus 10 mg dose of diazepam, according to studies
5-HT1A receptor = target: T1, 5-HT1A receptor (Homo sapiens, UniProt P08908)
T1 sequence (P08908 1-422): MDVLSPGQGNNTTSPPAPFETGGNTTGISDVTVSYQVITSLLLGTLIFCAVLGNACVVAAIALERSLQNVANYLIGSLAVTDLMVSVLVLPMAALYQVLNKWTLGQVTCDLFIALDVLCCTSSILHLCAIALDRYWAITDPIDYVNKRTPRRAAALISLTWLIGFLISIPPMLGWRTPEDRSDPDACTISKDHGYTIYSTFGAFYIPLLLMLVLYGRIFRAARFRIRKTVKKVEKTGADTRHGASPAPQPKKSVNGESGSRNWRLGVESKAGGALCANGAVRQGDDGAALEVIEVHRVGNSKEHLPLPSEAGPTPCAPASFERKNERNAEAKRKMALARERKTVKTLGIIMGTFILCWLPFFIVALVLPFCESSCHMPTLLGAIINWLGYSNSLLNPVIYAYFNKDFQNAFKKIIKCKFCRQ

CB1 receptor = CB1 receptor (Homo sapiens, UniProt P21554)
[2] = test system: alpha2-adrenergic receptor

Sequence of CB1 receptor (P21554 whole entry): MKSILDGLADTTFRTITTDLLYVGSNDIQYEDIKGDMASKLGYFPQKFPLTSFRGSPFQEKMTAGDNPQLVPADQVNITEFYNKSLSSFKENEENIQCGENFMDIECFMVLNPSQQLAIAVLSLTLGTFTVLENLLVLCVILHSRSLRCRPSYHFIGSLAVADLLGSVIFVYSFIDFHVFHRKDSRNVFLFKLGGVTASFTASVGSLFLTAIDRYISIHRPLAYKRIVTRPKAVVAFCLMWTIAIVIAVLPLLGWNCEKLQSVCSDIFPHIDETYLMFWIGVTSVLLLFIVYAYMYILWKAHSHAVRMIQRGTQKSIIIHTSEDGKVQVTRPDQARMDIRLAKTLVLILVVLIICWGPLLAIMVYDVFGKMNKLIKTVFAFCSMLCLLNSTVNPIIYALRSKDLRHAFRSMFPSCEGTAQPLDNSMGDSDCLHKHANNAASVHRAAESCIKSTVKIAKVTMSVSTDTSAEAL

SMILES	solubility in polyols such as glycerol	solubility in water	sedative effect [1]	affinity, 5-HT1A receptor antagonist (5-HT1A receptor)	affinity, CB1 receptor antagonist (CB1 receptor)	affinity, alpha2-adrenergic receptor agonist [2]
C=C(C)[C@@H]1CCC(C)=C[C@H]1c1c(O)cc(CCCCC)cc1O [CBD, cannabidiol, reference compound]	low solubility	water insoluble	–	–	–	–
CCCCCc1cc(O)c2c(c1)OC(C)(C)c1ccc(C)cc1-2 [CBN, cannabinol]	–	–	as effective as 10 mg dose of diazepam	–	–	–
CCCCCc1cc(O)c(C/C=C(\C)CCC=C(C)C)c(O)c1 [CBG, cannabigerol]	low solubility	water insoluble	–	moderate affinity	low affinity	high affinity
